According to patent publication US20240091317A1, “USE OF GLP-2 ANALOGUES IN PATIENTS WITH RENAL INSUFFICIENCY” (Zealand Pharma A/S, priority 2020, published 2024):

Key:
[1] = in vivo; cited from earlier work
[2] = in particular moderate or severe renal impairment, or ESRD; cited from earlier work
[3] = Phase 1 trial: PK of a single subcutaneous dose of 10 mg glepaglutide in subjects with severe renal impairment/ESRD vs normal renal function; format: in vivo, human
Description: The study was designed as a two-stage design, open-label, multi-center, non-randomized trial evaluating the PK of a single, subcutaneous dose of 10 mg glepaglutide in subjects with varying degrees of renal function. The renal function was calculated by the estimated glomerular filtration rate (eGFR) according to the Modification of Diet in Renal Disease (MDRD) equation.
Sixteen Caucasian subjects were enrolled, 4 with end stage renal disease (ESRD) not on dialysis (eGFR<15 mL/min), 4 with severe renal impairment (eGFR<30 mL/min) and 8 matching controls with normal renal function (eGFR>90 mL/min) (Table 1). Demographics, except eGFR, was similar across groups (Table 1).
Glepaglutide (ZP1848, 10 mg) was provided in a single-use vial containing 1 mL (an extractable volume of 0.5 mL) of a clear, colourless solution for subcutaneous injection, with a concentration of 20 mg/mL glepaglutide.
PK-blood samples were collected over a 14 day period following a single dose of 10 mg glepaglutide in the abdomen. The PK-samples were analyzed for glepaglutide, ZP2469 and ZP2711 using a GLP-validated LC/MS/MS assay.
The primary PK parameters were area under the curve between dose and last measurable concentration (AUCt), extrapolated to infinity (AUCinf) and calculated from 0 to 168 hours (AUC0-168) and the maximum plasma concentration (Cmax), which were computed for glepaglutide, ZP2469, ZP2711. A constructed analyte “glepaglutide-total” (glepaglutide+ZP2469+ZP2711) was used for the primary endpoint, and analysed using a non-compartmental approach.

Molecule: Hy-His-Ala-Asp-Gly-Ser-Phe-Ser-Asp-Glu-Met-Asn-Thr-Ile-Leu-Asp-Asn-Leu-Ala-Ala-Arg-Asp-Phe-Ile-Asn-Trp-Leu-Ile-Gln-Thr-Lys-Ile-Thr-Asp-OH [GLP-2 [1-33]]
- Half-life in humans [1]: around 7 minutes

Molecule: GLP-2 [3-33]: truncated GLP-2 [3-33] (DGSFSDEMNTILDNLAARDFINWLIQTKITD; Glucagon-like peptide 2; UniProt P01275 148-178, looked up, fragment)
- Half-life in humans [1]: 27 min

Molecule: CC[C@H](C)[C@H](NC(=O)[C@H](Cc1ccccc1)NC(=O)[C@H](CC(=O)O)NC(=O)[C@H](CCCNC(=N)N)NC(=O)[C@H](C)NC(=O)[C@H](C)NC(=O)[C@H](CC(C)C)NC(=O)[C@H](CC(N)=O)NC(=O)[C@H](CC(=O)O)NC(=O)[C@H](CC(C)C)NC(=O)[C@@H](NC(=O)[C@@H](NC(=O)[C@H](CC(N)=O)NC(=O)[C@H](CCSC)NC(=O)[C@H](CCC(=O)O)NC(=O)[C@H](CC(=O)O)NC(=O)[C@H](CO)NC(=O)[C@H](Cc1ccccc1)NC(=O)[C@H](CO)NC(=O)CNC(=O)[C@H](CC(=O)O)NC(=O)CNC(=O)[C@@H](N)Cc1c[nH]cn1)[C@@H](C)O)[C@@H](C)CC)C(=O)N[C@@H](CC(N)=O)C(=O)N[C@@H](Cc1c[nH]c2ccccc12)C(=O)N[C@@H](CC(C)C)C(=O)N[C@H](C(=O)N[C@@H](CCC(N)=O)C(=O)N[C@H](C(=O)N[C@@H](CCCCN)C(=O)N[C@H](C(=O)N[C@H](C(=O)N[C@@H](CC(=O)O)C(=O)O)[C@@H](C)O)[C@@H](C)CC)[C@@H](C)O)[C@@H](C)CC [teduglutide]
- Clearance in subjects with renal dysfunction [2]: impaired

Molecule: H-HGEGTFSSELATILDALAARDFIAWLIATKITDKKKKKK-NH2 [ZP1848]
- Clearance in patients with renal impairment ([3]; human, in vivo): cleared normally
- Difference in total exposure (AUC0-168h) and peak plasma concentrations (Cmax), severe renal impairment/ESRD vs normal renal function ([3]; single SC dose): no clinically relevant difference
- Difference in primary PK parameters (AUCt, AUCinf, AUC0-168, Cmax), severe renal impairment and ESRD vs healthy matched subjects ([3]; single SC dose 10 mg glepaglutide): no statistically significant differences
